Results from patent publication US5700445A, “N-methyl piperazine compounds having dopamine receptor affinity” (Allelix Biopharmaceuticals, Inc., priority 1994, dated 1997).
pKi: −log10 of the molar value.

Key:
[1] = biological target: T1, human D4 receptor (D4.2 sub-type) (Homo sapiens, UniProt P21917, DEL265-296); test: D4 receptor binding assay (displacement of 3H-spiperone); conditions: 3H-spiperone 0.25 nM, cell membranes, Cheng and Prustoff, read-out: D4 AFFINITY Ki
T1 construct: expressed in transfected cells; host or cells: HEK 298 (human embryonic kidney) cells, stably transfected
T1 sequence (P21917 with tags, fused parts or gaps DEL265-296): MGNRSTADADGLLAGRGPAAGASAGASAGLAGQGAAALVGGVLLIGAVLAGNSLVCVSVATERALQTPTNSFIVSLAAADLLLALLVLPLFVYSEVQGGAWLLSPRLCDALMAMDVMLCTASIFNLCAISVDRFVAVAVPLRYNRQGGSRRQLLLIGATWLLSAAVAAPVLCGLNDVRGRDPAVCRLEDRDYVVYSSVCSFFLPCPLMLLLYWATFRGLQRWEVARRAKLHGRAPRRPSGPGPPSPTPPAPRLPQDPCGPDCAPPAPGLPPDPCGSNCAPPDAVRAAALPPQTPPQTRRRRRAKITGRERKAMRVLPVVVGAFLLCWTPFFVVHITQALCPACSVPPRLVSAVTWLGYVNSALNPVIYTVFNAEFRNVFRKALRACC
Protocol: (§1) The potency of the test compound to reduce ^3 H-spiperone binding directly correlated to its binding affinity for the receptor.
The cells were then centrifuged in a Sorval centrifuge for 10 min, 5000 rpm (GS3 rotor) and the pellets quickly frozen in liquid nitrogen and stored at -80° C. until used in binding assay. When used in the assay, cells were thawed on ice for 20 min and then 10 ml of incubation buffer (50 mM Tris, 1 mM EDTA, 4 mM MgCl2, 5 mM KCl, 1.5 mM CaCl2, 120 mM NaCl, pH 7.4) was added. […] Concentration of receptor protein was determined using the Pierce BCA assay.
(§2) The tubes were vortexed and incubated at room temperature for 90 minutes. The binding reaction was stopped by filtering using a Brandell Cell Harvester. The samples were filtered under vacuum over glass fibre filters (Whatman GF/B) presoaked for 2 hours in 0.3% polyethylenimine (PEI) in 50 mM Tris buffer (pH 7.4). The filters were then washed 3 times with 5 ml ice cold 50 mM Tris buffer (pH 7.4). Individual filter disks were put in scintillation vials (Biovials, Bechman). Ready Protein Plus liquid scintillant (5 ml, Beckman) was added and the vials counted by liquid scintillation spectrophotometry (Beckman LSC 6500) after equilibrating for three hours at room temperature to determine total binding (BT).
The tubes were vortexed and incubated at room temperature for 90 minutes at which time the binding reaction was stopped by filtering. The filters were washed and counted using the same procedure as in the total binding assay described above to give the non-specific binding value (NSB).
(§3) The tubes were vortexed and incubated at room temperature for 90 minutes at which time the binding reaction was stopped by filtering. The filters were washed and counted using the same procedure as in the total binding assay described above to give the displacement binding value (BD).
(§4) IC50 was determined from an inhibition response curve, logit-log plot of %B/B0 vs concentration of test compound. Ki was calculated by the Cheng and Prustoff transformation: […]

[2] = biological target: T2, human D2 receptor (short isoform) (Homo sapiens, UniProt P14416); test: D2 receptor binding assay (displacement of 3H-spiperone), reported as D2/D4 selectivity; conditions: ratio D2/D4; 3H-spiperone 0.25 nM; D2 short isoform vs D4.2
T2 construct: 3H-spiperone displacement
T2 sequence (P14416 with tags, fused parts or gaps DEL242-270): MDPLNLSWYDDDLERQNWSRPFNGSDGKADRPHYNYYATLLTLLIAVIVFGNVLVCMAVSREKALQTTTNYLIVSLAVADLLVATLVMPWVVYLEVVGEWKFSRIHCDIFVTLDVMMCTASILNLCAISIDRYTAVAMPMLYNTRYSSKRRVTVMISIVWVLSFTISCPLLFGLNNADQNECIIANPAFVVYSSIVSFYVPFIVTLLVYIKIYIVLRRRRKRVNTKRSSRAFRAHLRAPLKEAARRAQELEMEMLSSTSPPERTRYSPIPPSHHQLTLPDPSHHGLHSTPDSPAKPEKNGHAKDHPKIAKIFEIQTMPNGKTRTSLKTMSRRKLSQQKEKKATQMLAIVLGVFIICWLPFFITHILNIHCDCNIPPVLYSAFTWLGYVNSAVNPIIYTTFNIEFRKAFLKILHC
Protocol: as §1
CH4 C1 (rat pituitary) cells stably transfected with the human D2 receptor (short isoform) were grown in CO2 independent media in roller bottles (1500 cm^2) for 10 days. 100 μM ZnSO4 was added to the cells (the D2 promoter being zinc inducible). After 16 hours, fresh media was added to allow the cells to recover for 24 hours. The cells were harvested using versine and then centrifuged in a Sorval centrifuge for 10 minutes, at 5000 rpm (GS3 rotor). Pellets were quickly frozen in liquid nitrogen and stored at -80° C. until used in the binding assays. When used in the assay, cells were thawed on ice for 20 minutes. […] The receptor protein concentration was determined using the Pierce BCA assay.
as §2
This assay employed the same procedures as the non-specific binding assay for D4 with the exception that 2 μM (final conc.) of (-) sulpiride (Research Chemicals Inc.) was used in place of dopamine.
as §3, §4
where [L] is the concentration of ^3 H-spiperone used in the assay and KD is the dissociation constant of ^3 H-spiperone determined independently under the same binding conditions.

D4 receptor = conditions: background, marketed products; read-out: D4 affinity, Ki; cited from earlier work
human D4 receptors [3] = biological target: T3, human D4 receptors (Homo sapiens, UniProt P21917); test: Functional agonist assay: decrease in forskolin-stimulated cAMP in D4 stably expressing CHO cells; type: cell-based; conditions: forskolin 10 μM
T3 construct: expressed in transfected cells; host or cells: CHO Pro 5 cells, stably expressing
T3 sequence (P21917 1-419): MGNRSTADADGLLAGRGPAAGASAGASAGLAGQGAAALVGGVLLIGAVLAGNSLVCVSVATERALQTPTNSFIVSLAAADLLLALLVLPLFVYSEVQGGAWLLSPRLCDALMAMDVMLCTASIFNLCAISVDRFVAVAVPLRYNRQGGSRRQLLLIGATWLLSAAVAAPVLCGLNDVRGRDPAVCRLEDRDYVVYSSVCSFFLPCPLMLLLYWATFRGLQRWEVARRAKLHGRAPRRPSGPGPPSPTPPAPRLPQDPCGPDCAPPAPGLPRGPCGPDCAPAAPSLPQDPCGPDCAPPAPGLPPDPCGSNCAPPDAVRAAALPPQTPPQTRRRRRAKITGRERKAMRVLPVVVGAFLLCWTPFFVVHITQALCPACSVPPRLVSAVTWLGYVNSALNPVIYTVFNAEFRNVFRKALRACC
Protocol: The D4 receptor responds to dopamine and other agonists by reducing adenyl cyclase mediated production of cyclic AMP. Particular test compound 4-chloro-5H-dibenzo[b,e][1,4]diazepine was assayed for its ability to reverse dopamine inhibition of adenyl cyclase by the following procedure. Forskolin was used to elevate the basal adenyl cyclase activity.
(§5) CHO Pro 5 cells stably expressing human D4 receptors were plated in 6 well plates in DMEM (Dulbecco's Modified Eagle Medium)/F12(Nutrient Mixture F12 (Ham)) media with 10% FCS (fetal calf serum) and G418 (Geneticen Disulfate), and incubated at 37° C. in a CO2 incubator. The cells were allowed to grow to about 70% confluence before use in the assay.
To D4 stably expressing CHO cells prepared as previously described were added test compound and forskolin (10 μM final concentration). The cells were incubated, extracted and measured for cAMP concentration as above. Agonist activity of a test compound would result in a decrease in cAMP concentration compared to cells treated with forskolin (Cf) only.

human D4 receptors [4] = biological target: T3, human D4 receptors; test: Functional antagonist assay: reversal of dopamine inhibition of forskolin-stimulated adenyl cyclase (cAMP) in CHO Pro 5 cells; type: cell-based; conditions: dopamine and forskolin both 10 μM, read-out: % REVERSAL OF DOPAMINE EFFECT
Protocol: The D4 receptor responds to dopamine and other agonists by reducing adenyl cyclase mediated production of cyclic AMP. […] Forskolin was used to elevate the basal adenyl cyclase activity.
as §5
Basal adenyl cyclase activity was determined from wells with only SFM+IBMX media added.
The cells were then incubated at 37° C. for 30 minutes in a CO2 incubator. Following incubation the media was aspirated from each well and then washed once with 2 mL of PBS (phosphate buffered saline). […] The cells from each well were then scraped and transferred into individual Eppendorf tubes. […]
Total inhibition (I0) of forskolin-stimulated adenyl cyclase activity by dopamine was determined as the difference in concentration of cAMP in the forskolin-treated cells (Cf) and dopamine-forskolin treated cells (Cd).
Net inhibition (I) of forskolin-stimulated adenyl cyclase activity by dopamine in the presence of an antagonist was determined as the difference in concentration of cAMP in the forskolin-treated cells (Cf) and test compound, dopamine and forskolin treated cells (C).

Question: With `CN1CCN(C2=Nc3ccccc3Nc3ccc(C(F)(F)F)cc32)CC1` [2-trifluoromethyl-11-(4-methyl-1-piperazinyl)-5H-dibenzo[b,e][1,4]diazepine] as the compound, how does the pKi [1] read?
Answer: 7.85

Question: Which “SELECTIVITY FOR D4, D2/D4” value [2] does the source give for `CN1CCN(C2=Nc3ccccc3Oc3c2cccc3[N+](=O)[O-])CC1` [4-nitro-11-(4-methyl-1-piperazinyl)dibenz[b,f][1,4]oxazepine] here?
Answer: 21.4

Question: With `CN1CCN(C2=Nc3ccccc3Oc3c(C#N)cccc32)CC1` [4-cyano-11-(4-methyl-1-piperazinyl)dibenz[b,f][1,4]oxazepine] as the compound, how does the “SELECTIVITY FOR D4, D2/D4” value [2] read?
Answer: 64.4

Question: For `CN1CCN(C2=Nc3cc(Cl)c(Cl)cc3Nc3ccc(Cl)cc32)CC1` [2,7,8-trichloro-11-(4-methyl-1-piperazinyl)-5H-dibenzo[b,e][1,4]diazepine], which “SELECTIVITY FOR D4, D2/D4” value [2] is on record?
Answer: 10.7

Question: With `CN1CCN(C2=Cc3cc(C#N)ccc3Sc3ccccc32)CC1` [2-cyano-10-(4-methyl-piperazinyl)-dibenzo[b,f]thiepine] as the compound, how does the “SELECTIVITY FOR D4, D2/D4” value [2] read?
Answer: 21.4

Question: And the pKi [1]?
Answer: 8.35

Question: With `CN1CCN(C2=Nc3cc(Cl)ccc3Oc3ccccc32)CC1` [isoloxapine] as the compound, how does the pKi (D4 receptor) read?
Answer: ~7.70

Question: For `CN1CCN(C2=Nc3ccccc3Nc3cccc(F)c32)CC1` [1-fluoro-11-(4-methyl-1-piperazinyl)-5H-dibenz[b,e][1,4]diazepine], which “SELECTIVITY FOR D4, D2/D4” value [2] is on record?
Answer: 12.6

Question: Which “SELECTIVITY FOR D4, D2/D4” value [2] does the source give for `Cc1cc2c(cc1C)Nc1ccccc1C(N1CCN(C)CC1)=N2` [7,8-dimethyl-11-(4-methyl-1-piperazinyl)-5H-dibenzo[b,e][1,4]diazepine] here?
Answer: 10.6

Question: Which “dopamine agonist activity (decrease in cAMP compared to cells treated with forskolin)” value (human D4 receptors [3]) does the source give for `CN1CCN(C2=Nc3ccccc3Nc3c(Cl)cccc32)CC1` [4-Chloro-11-(4-methyl-1-piperazinyl)-5H-dibenzo[b,e][1,4]diazepine] here?
Answer: no dopamine agonist activity

Question: What about the inhibition at 1 µM (human D4 receptors [4]; 1 μM test compound) of the same compound?
Answer: 16%

Question: What about the inhibition at 10 µM (human D4 receptors [4]; 10 μM test compound) of the same compound?
Answer: 58%

Question: What about the “SELECTIVITY FOR D4, D2/D4” value [2] of the same compound?
Answer: 187.5

Question: What about the pKi [1] of the same compound?
Answer: 7.78

Question: For `CN1CCN(C2=Nc3cc(Cl)c(Cl)cc3Nc3c(Cl)cccc32)CC1` [4,7,8-trichloro-11-(4-methyl-1-piperazinyl)-5H-dibenzo[b,e][1,4]diazepine], which “SELECTIVITY FOR D4, D2/D4” value [2] is on record?
Answer: 18.8
